Results published in US20150315241A1, “Antibiotic Peptides” (priority 2007, published 2015).
Converted amounts (≈) assume the structure as drawn. Where a SMILES comes first, the peptide text is derived from it. Where no end group is shown, it is not given here. [ ]: non-standard residue; d: D form. The star is where a group is joined. Orn(α-tetramethylguanidino) = CN(C)C(=N[C@@H](CCCN)C(=O)*)N(C)C; hArg = N=C(N)NCCCC[C@H](N)C(=O)O; β3hR = N=C(N)NCCC[C@H](N)CC(=O)O; X1 = CN(C)C(=NCC(=O)*)N(C)C; Orn = NCCC[C@H](N)C(=O)O

What was measured:
E. coli D31 = assay type: cell-based, Escherichia coli; details: D31, 20 h
Procedure: (§1) The minimal inhibition concentrations (MIC) of the apidaecin-derived peptides and peptide-derivatives were determined by a growth inhibition assay using a serial peptide dilution in sterilized round-bottom 96-well plates (polystyrene, U-bottom, Greiner Bio-One GmbH) with a final volume of 100 μL per well. The bacteria, e.g., E. coli BL21 A1, were grown in nutrient broth (NB, Carl Roth GmbH+Co. KG, Karlsruhe, Germany) at 37° C. over night. To each well of the 96-well plate, 50 μL of the overnight culture adjusted to 5×10^6 CFU/mL in 1% TSB were added. Lyophilized peptides and peptidomimetics were dissolved in 1% TSB (tryptic soy broth) or water to give a final concentration of 250 μg/mL. Fifty μL of the peptide or peptidomimetics solution were added to the first well of a row on the plate and mixed. Fifty μL of the first well containing the peptide solution were transferred to the second well, mixed and again 50 μL transferred to the next well and so on. Thereby, a two-fold dilution series was obtained starting at 250 μg/mL in the first well down to 120 ng/mL in the 12th well of a row giving a final peptide or peptidomimetics concentration from 125 μg/mL (well 1) to 60 ng/mL (well 12). Plates were incubated at 37° C. for 20 hrs. The absorbance was measured at 595 nm using a TECAN micro plate spectrophotometer (Tecan, Germany). All peptides and peptidomimetics were measured in triplicates. Sterilized water was used as a negative control.
(§2) The following multidrug resistant bacteria strains were tested: • Eschericha coli 45849 and D31, • Klebsiella pneumoniae 123132 and K6, • Salmonella typhi S5 and Salmonella enterica subsp. enterica serovar Typhimurium (ATCC 700408), • Rhizobium radiobacter (ATCC 15955 deposited as Agrobacterium tumefaciens).

[1] = test system: K. Pneumonia K6, ATCC 700603; assay: Growth inhibition assay (MIC); assay type: cell-based, Klebsiella pneumoniae; details: multidrug resistant strain; 1% TSB, 37° C., 20 hrs
Procedure: as §1, §2

[2] = test system: S. enterica subsp. Enterica serovar. typhi G10215 ATCC 700408; assay type: cell-based, Salmonella enterica; details: ATCC 700408, 20 h
Procedure: as §1, §2

S. typhi S5 = assay type: cell-based, Salmonella typhi; details: S5, 20 h
Procedure: as §1, §2

E. coli 45849 = assay: Growth inhibition assay (MIC); assay type: cell-based, Escherichia coli; details: multidrug resistant strain; 1% TSB, 37° C., 20 hrs
Procedure: as §1, §2

K. Pneumonia 123132 = assay: Growth inhibition assay (MIC); assay type: cell-based, Klebsiella pneumoniae; details: multidrug resistant strain; 1% TSB, 37° C., 20 hrs
Procedure: as §1, §2

E. coli BL 21 AI = assay: Growth inhibition assay (MIC); assay type: cell-based, Escherichia coli; details: 1% TSB, 37° C., 20 hrs
Procedure: as §1
(§3) The bacteria strains were tested: • Eschericha coli 1103, 10233, BL 21 AI, DC 2, • Klebsiella pneumoniae 681, • Micrococcus luteus ATCC 10240, • Mycobacterium vaccae • Bactillus subtillis 347.

M. luteus ATCC 10240 = assay type: cell-based, Micrococcus luteus; details: ATCC 10240, 20 h
Procedure: as §1, §3

E. coli 1103 = assay type: cell-based, Escherichia coli; details: 1103, 20 h
Procedure: as §1, §3

K. pneumonia 681 = assay type: cell-based, Klebsiella pneumoniae; details: 20 h
Procedure: as §1, §3

B. subtilis 347 = assay type: cell-based, Bactillus subtillis; details: 347, 20 h
Procedure: as §1, §3

Compound	MIC E. coli D31 (E. coli D31) [µg/mL]	MIC K. Pneumonia K6, ATCC 700603 [1] [µg/mL]	MIC S. enterica subsp. Enterica serovar. typhi G10215 ATCC 700408 [2] [µg/mL]	MIC S. typhi S5 (S. typhi S5) [µg/mL]	MIC E. coli 45849 (E. coli 45849) [µg/mL]	MIC K. Pneumonia 123132 (K. Pneumonia 123132) [µg/mL]	MIC E. coli BL 21 AI (E. coli BL 21 AI) [µg/mL]	MIC M. luteus ATCC 10240 (M. luteus ATCC 10240) [µg/mL]	MIC E. coli 1103 (E. coli 1103) [µg/mL]	MIC K. pneumonia 681 (K. pneumonia 681) [µg/mL]	MIC B. subtilis 347 (B. subtilis 347) [µg/mL]
CC[C@H](C)[C@H](NC(=O)[C@H](Cc1ccc(O)cc1)NC(=O)[C@@H](NC(=O)[C@@H]1CCCN1C(=O)[C@H](CCCNC(=N)N)NC(=O)[C@H](CC(N)=O)NC(=O)[C@H](CC(N)=O)NC(=O)[C@H](CCCN)NC(C)=O)C(C)C)C(=O)N1CCC[C@H]1C(=O)N[C@@H](CCC(N)=O)C(=O)N1CCC[C@H]1C(=O)N[C@@H](CCCNC(=N)N)C(=O)N1CCC[C@H]1C(=O)N1CCC[C@H]1C(=O)N[C@@H](Cc1c[nH]cn1)C(=O)N1CCC[C@H]1C(=O)N[C@@H](CCCNC(=N)N)C(=O)N[C@@H](CC(C)C)C(=O)OC [compound 50] (Ac-[Orn]NNRPVYIPQPRPPHPRL-OMe)	>128	>128	32 (≈ 14.4 µM)	–	–	–	–	–	–	–	–
CC[C@H](C)[C@H](NC(=O)[C@H](Cc1ccc(O)cc1)NC(=O)[C@@H](NC(=O)[C@@H]1CCCN1C(=O)[C@H](CCCNC(=N)N)NC(=O)[C@H](CC(N)=O)NC(=O)[C@H](CC(N)=O)NC(=O)[C@H](CCCN)N=C(N(C)C)N(C)C)C(C)C)C(=O)N1CCC[C@H]1C(=O)N[C@@H](CCC(N)=O)C(=O)N1CCC[C@H]1C(=O)N[C@@H](CCCNC(=N)N)C(=O)N1CCC[C@H]1C(=O)N1CCC[C@H]1C(=O)N[C@@H](Cc1c[nH]cn1)C(=O)N1CCC[C@H]1C(=O)N[C@@H](CCCNC(=N)N)C(=O)N[C@@H](CC(C)C)C(N)=O [compound 120] ({Orn(α-tetramethylguanidino)}-NNRPVYIPQPRPPHPRL-NH2; N-terminus and C-terminus assumed)	0.5 (≈ 0.221 µM)	–	0.125 (≈ 0.0552 µM)	0.125 (≈ 0.0552 µM)	–	–	–	–	–	–	–
CC[C@H](C)[C@H](NC(=O)[C@H](Cc1ccc(O)cc1)NC(=O)[C@@H](NC(=O)[C@@H]1CCCN1C(=O)[C@H](CCCNC(=N)N)NC(=O)[C@H](CC(N)=O)NC(=O)[C@H](CC(N)=O)NC(=O)[C@@H](N)CCCN)C(C)C)C(=O)N1CCC[C@H]1C(=O)N[C@@H](CCC(N)=O)C(=O)N1CCC[C@H]1C(=O)N[C@@H](CCCNC(=N)N)C(=O)N1CCC[C@H]1C(=O)N1CCC[C@H]1C(=O)N[C@@H](Cc1c[nH]cn1)C(=O)N1CCC[C@H]1C(=O)N[C@@H](CCCNC(=N)N)CC(=O)N[C@@H](CC(C)C)C(N)=O [compound 121] (H-[Orn]NNRPVYIPQPRPPHP[β3hR]L-NH2)	16 (≈ 7.34 µM)	>128	–	–	128 (≈ 58.8 µM)	128 (≈ 58.8 µM)	–	–	–	–	–
CC[C@H](C)[C@H](NC(=O)[C@H](Cc1ccc(O)cc1)NC(=O)[C@@H](NC(=O)[C@@H]1CCCN1C(=O)[C@H](CCCNC(=N)N)NC(=O)[C@H](CC(N)=O)NC(=O)[C@H](CC(N)=O)NC(=O)CNC(C)=O)C(C)C)C(=O)N1CCC[C@H]1C(=O)N[C@@H](CCC(N)=O)C(=O)N1CCC[C@H]1C(=O)N[C@@H](CCCNC(=N)N)C(=O)N1CCC[C@H]1C(=O)N1CCC[C@H]1C(=O)N[C@@H](Cc1c[nH]cn1)C(=O)N1CCC[C@H]1C(=O)N[C@@H](CCCCNC(=N)N)C(=O)N[C@@H](CC(C)C)C(N)=O [compound 132] (Ac-GNNRPVYIPQPRPPHP[hArg]L-NH2)	–	–	–	–	–	–	32 (≈ 14.8 µM)	32 (≈ 14.8 µM)	64 (≈ 29.6 µM)	32 (≈ 14.8 µM)	128 (≈ 59.2 µM)
CC[C@H](C)[C@H](NC(=O)[C@H](Cc1ccc(O)cc1)NC(=O)[C@@H](NC(=O)[C@@H]1CCCN1C(=O)[C@H](CCCNC(=N)N)NC(=O)[C@H](CC(N)=O)NC(=O)[C@H](CC(N)=O)NC(=O)CN=C(N(C)C)N(C)C)C(C)C)C(=O)N1CCC[C@H]1C(=O)N[C@@H](CCC(N)=O)C(=O)N1CCC[C@H]1C(=O)N[C@@H](CCCNC(=N)N)C(=O)N1CCC[C@H]1C(=O)N1CCC[C@H]1C(=O)N[C@@H](Cc1c[nH]cn1)C(=O)N1CCC[C@H]1C(=O)N[C@@H](CCCCNC(=N)N)C(=O)N[C@@H](CC(C)C)C(N)=O [compound 133] (X1-NNRPVYIPQPRPPHP[hArg]L-NH2; N-terminus and C-terminus assumed)	16 (≈ 7.21 µM)	–	2 (≈ 0.901 µM)	16 (≈ 7.21 µM)	–	–	–	32 (≈ 14.4 µM)	16 (≈ 7.21 µM)	8 (≈ 3.6 µM)	–
GNNRPVYIPQPRPPHPL-NH2 [compound 43]	>128	>64	>64	–	–	–	–	–	–	–	–
GNNRPVYIPQPRPPHPRF-NH2 [compound 44]	128	64	4	–	–	–	–	–	–	–	–
